Reference: ChEMBL document CHEMBL1152871, “Synthesis of citrate-ciprofloxacin conjugates” (2009)

Experiments:
Type in all cases: functional
[1] = system: Staphylococcus aureus; experiment: Antimicrobial activity against Staphylococcus aureus NCTC 6571 at 5 ug/disk after 18 to 20 hrs by disk diffusion assay; conditions: read-out: IZ
[2] = system: Staphylococcus aureus; experiment: Antimicrobial activity against Staphylococcus aureus NCTC 10399 at 5 ug/disk after 18 to 20 hrs by disk diffusion assay; conditions: read-out: IZ
[3] = system: Staphylococcus aureus; experiment: Antimicrobial activity against ciprofloxacin and methicillin-resistant Staphylococcus aureus HG-1 at 5 ug/disk after 18 to 20 hrs by disk diffusion assay; conditions: read-out: IZ
[4] = system: Staphylococcus epidermidis; experiment: Antimicrobial activity against Staphylococcus epidermidis NCTC 11047 at 5 ug/disk after 18 to 20 hrs by disk diffusion assay; conditions: read-out: IZ
[5] = system: Staphylococcus epidermidis; experiment: Antimicrobial activity against Staphylococcus epidermidis NCTC 2749 at 5 ug/disk after 18 to 20 hrs by disk diffusion assay; conditions: read-out: IZ
[6] = system: Staphylococcus haemolyticus; experiment: Antimicrobial activity against Staphylococcus haemolyticus NCTC 11042 at 5 ug/disk after 18 to 20 hrs by disk diffusion assay; conditions: read-out: IZ
[7] = system: Staphylococcus aureus; experiment: Antimicrobial activity against ciprofloxacin and epidemic methicillin-resistant Staphylococcus aureus BIG 0052 at 5 ug/disk after 18 to 20 hrs by disk diffusion assay; conditions: read-out: IZ
[8] = system: Pseudomonas aeruginosa; experiment: Antimicrobial activity against Pseudomonas aeruginosa NCTC 6749 at 5 ug/disk after 18 to 20 hrs by disk diffusion assay; conditions: read-out: IZ
[9] = system: Pseudomonas aeruginosa; experiment: Antimicrobial activity against Pseudomonas aeruginosa BIG 0039 at 5 ug/disk after 18 to 20 hrs by disk diffusion assay; conditions: read-out: IZ
[10] = system: Pseudomonas aeruginosa; experiment: Antimicrobial activity against Pseudomonas aeruginosa BIG 0037 at 5 ug/disk after 18 to 20 hrs by disk diffusion assay; conditions: read-out: IZ
[11] = system: Pseudomonas aeruginosa; experiment: Antimicrobial activity against Pseudomonas aeruginosa NCTC 10662 at 5 ug/disk after 18 to 20 hrs by disk diffusion assay; conditions: read-out: IZ
[12] = system: Burkholderia cepacia; experiment: Antimicrobial activity against Burkholderia cepacia NCTC 10744 at 5 ug/disk after 18 to 20 hrs by disk diffusion assay; conditions: read-out: IZ
[13] = system: Escherichia coli; experiment: Antimicrobial activity against ciprofloxacin-resistant Escherichia coli BIG 0046 at 5 ug/disk after 18 to 20 hrs by disk diffusion assay; conditions: read-out: IZ
[14] = system: Escherichia coli; experiment: Antimicrobial activity against Escherichia coli NCTC 10418 at 5 ug/disk after 18 to 20 hrs by disk diffusion assay; conditions: read-out: IZ
[15] = system: Escherichia coli; experiment: Antimicrobial activity against ciprofloxacin-resistant Escherichia coli BIG 0051 at 5 ug/disk after 18 to 20 hrs by disk diffusion assay; conditions: read-out: IZ
[16] = system: Escherichia coli; experiment: Antimicrobial activity against wild-type Escherichia coli K-12 BW-25113 at 0.15 ug after overnight incubation in presence of 1 uM Fe3-cation
[17] = system: Escherichia coli; experiment: Antimicrobial activity against wild-type Escherichia coli K-12 BW-25113 at 0.15 ug after overnight incubation in presence of 1000 uM Fe3-cation
[18] = system: Escherichia coli; experiment: Antimicrobial activity against isogenic Escherichia coli K-12 […] mutant at 0.15 ug after overnight incubation in presence of 1 uM Fe3-cation
[19] = system: Escherichia coli; experiment: Antimicrobial activity against isogenic Escherichia coli K-12 […] mutant at 0.15 ug after overnight incubation in presence of 1000 uM Fe3-cation
[20] = system: Staphylococcus aureus; experiment: Antimicrobial activity against epidemic methicillin-resistant Staphylococcus aureus NCTC 13142 at 5 ug/disk after 18 to 20 hrs by disk diffusion assay; conditions: read-out: IZ
[21] = system: Staphylococcus aureus; experiment: Antimicrobial activity against ciprofloxacin and epidemic methicillin-resistant Staphylococcus aureus NCTC 13143 at 5 ug/disk after 18 to 20 hrs by disk diffusion assay; conditions: read-out: IZ
[22] = system: Pseudomonas aeruginosa; experiment: Antimicrobial activity against Pseudomonas aeruginosa BIG 0063 at 5 ug/disk after 18 to 20 hrs by disk diffusion assay; conditions: read-out: IZ
[23] = system: Serratia marcescens; experiment: Antimicrobial activity against Serratia marcescens NCTC 1377 at 5 ug/disk after 18 to 20 hrs by disk diffusion assay; conditions: read-out: IZ

Row | SMILES | zone of inhibition at 5 µg/disc [1] | zone of inhibition at 5 µg/disc [2] | zone of inhibition at 5 µg/disc [3] | zone of inhibition at 5 µg/disc [4] | zone of inhibition at 5 µg/disc [5] | zone of inhibition at 5 µg/disc [6] | zone of inhibition at 5 µg/disc [7] | zone of inhibition at 5 µg/disc [8] | zone of inhibition at 5 µg/disc [9] | zone of inhibition at 5 µg/disc [10] | zone of inhibition at 5 µg/disc [11] | zone of inhibition at 5 µg/disc [12] | zone of inhibition at 5 µg/disc [13] | zone of inhibition at 5 µg/disc [14] | zone of inhibition at 5 µg/disc [15] | zone of inhibition at 5 µg/disc [20] | zone of inhibition at 5 µg/disc [21] | zone of inhibition at 5 µg/disc [22] | zone of inhibition at 5 µg/disc [23] | further results
1 | O=C(O)CC(O)(CC(=O)N1CCN(c2cc3c(cc2F)c(=O)c(C(=O)O)cn3C2CC2)CC1)C(=O)O (centres undefined) | 17 mm | 20 mm | 0 mm | 28 mm | 28 mm | 30 mm | 0 mm | 23 mm | 18 mm | 25 mm | 23 mm | 18 mm | 0 mm | 30 mm | 0 mm | – | – | – | – | inhibition zone (IZ) [16]: 1.1 cm; inhibition zone (IZ) [17]: 1.3 cm; inhibition zone (IZ) [18]: 0.6 cm; inhibition zone (IZ) [19]: 0.8 cm
2 | O=C(O)CC(O)(CC(=O)O)C(=O)N1CCN(c2cc3c(cc2F)c(=O)c(C(=O)O)cn3C2CC2)CC1 | 20 mm | 23 mm | 0 mm | 21 mm | 24 mm | 20 mm | 0 mm | – | – | 24 mm | – | 18 mm | 0 mm | 27 mm | 0 mm | 21 mm | 0 mm | 24 mm | 25 mm | –
3 | O=C(O)c1cn(C2CC2)c2cc(N3CCNCC3)c(F)cc2c1=O [CIPROFLOXACIN] | 24 mm | 27 mm | 0 mm | 25 mm | 29 mm | 25 mm | 0 mm | 35 mm | 27 mm | 31 mm | 31 mm | 22 mm | 0 mm | 32 mm | 0 mm | 22 mm | 0 mm | 32 mm | 30 mm | –
